Assay results as given in patent US11040981B2, “Pyrrolotriazine compounds and methods of inhibiting TAM kinases” (Syros Pharmaceuticals, Inc., priority 2017, dated 2021).
pIC50: −log10 of the molar value.

Legend:
[1] = target: T1, MERTK (Homo sapiens, UniProt Q12866); experiment: TR-FRET kinase activity assay, MERTK; type: biochemical
T1 sequence (Q12866 21-999): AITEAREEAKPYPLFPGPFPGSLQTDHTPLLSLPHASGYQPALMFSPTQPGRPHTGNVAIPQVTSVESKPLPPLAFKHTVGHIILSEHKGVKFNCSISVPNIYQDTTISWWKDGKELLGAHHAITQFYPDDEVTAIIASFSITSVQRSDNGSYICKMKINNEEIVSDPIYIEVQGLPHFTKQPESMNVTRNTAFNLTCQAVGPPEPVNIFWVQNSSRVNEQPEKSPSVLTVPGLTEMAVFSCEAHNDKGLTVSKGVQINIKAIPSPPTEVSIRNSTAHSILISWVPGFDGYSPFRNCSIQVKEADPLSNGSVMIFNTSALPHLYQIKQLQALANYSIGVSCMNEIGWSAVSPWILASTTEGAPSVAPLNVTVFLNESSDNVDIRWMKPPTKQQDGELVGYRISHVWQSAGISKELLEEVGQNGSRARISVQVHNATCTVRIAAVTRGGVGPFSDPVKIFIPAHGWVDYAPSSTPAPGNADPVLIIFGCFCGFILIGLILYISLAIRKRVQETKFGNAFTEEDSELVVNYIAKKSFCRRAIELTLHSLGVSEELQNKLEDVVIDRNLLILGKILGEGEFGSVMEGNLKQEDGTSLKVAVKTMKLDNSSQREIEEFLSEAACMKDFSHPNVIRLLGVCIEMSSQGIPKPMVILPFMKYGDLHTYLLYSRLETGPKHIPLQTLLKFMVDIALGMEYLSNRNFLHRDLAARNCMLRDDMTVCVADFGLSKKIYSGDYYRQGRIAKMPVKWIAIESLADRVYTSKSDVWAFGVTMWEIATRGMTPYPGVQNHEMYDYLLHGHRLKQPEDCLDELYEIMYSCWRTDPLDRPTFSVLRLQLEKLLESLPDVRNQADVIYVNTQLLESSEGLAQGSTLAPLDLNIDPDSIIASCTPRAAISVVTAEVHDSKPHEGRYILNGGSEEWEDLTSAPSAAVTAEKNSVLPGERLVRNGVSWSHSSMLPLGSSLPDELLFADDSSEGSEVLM
Summary of the method: (§1)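 Enzyme, fluorescent peptide substrate and compound were mixed, and the reaction was started with ATP at each kinase's Km, in 50 mM HEPES pH 7.5, 10 mM MgCl2, 1 mM EGTA, 0.01% Brij 35, 1 mM DTT at RT. After 60 minutes EDTA quench, Eu-labelled phospho-specific antibody was added for 30 minutes, and IC50 was derived from TR-FRET signal loss.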

[2] = target: T2, TYRO3 (Homo sapiens, UniProt Q06418); experiment: TR-FRET kinase activity assay, TYRO3; type: biochemical; settings: ATP at Km, 60 minutes
T2 sequence (Q06418 41-890): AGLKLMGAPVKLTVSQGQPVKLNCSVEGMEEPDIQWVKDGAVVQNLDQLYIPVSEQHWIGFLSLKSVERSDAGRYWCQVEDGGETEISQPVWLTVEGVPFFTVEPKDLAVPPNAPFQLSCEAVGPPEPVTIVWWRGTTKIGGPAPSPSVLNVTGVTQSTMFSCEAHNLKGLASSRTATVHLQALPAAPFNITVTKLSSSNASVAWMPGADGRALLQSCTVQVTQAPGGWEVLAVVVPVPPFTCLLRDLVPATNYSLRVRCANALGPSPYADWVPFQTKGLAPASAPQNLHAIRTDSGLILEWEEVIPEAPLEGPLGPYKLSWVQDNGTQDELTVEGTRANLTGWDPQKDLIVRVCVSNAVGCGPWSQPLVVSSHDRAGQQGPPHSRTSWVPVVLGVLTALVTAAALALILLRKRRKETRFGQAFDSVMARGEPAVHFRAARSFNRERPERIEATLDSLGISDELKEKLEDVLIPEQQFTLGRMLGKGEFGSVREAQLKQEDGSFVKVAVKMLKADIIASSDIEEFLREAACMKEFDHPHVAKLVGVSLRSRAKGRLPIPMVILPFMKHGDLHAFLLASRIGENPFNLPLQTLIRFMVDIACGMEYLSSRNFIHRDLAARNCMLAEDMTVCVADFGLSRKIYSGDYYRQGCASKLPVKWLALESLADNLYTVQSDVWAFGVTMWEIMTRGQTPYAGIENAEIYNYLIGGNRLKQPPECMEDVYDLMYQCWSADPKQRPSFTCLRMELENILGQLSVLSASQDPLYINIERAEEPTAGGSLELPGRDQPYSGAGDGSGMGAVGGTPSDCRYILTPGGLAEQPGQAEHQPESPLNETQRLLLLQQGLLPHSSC
Summary of the method: as §1

`COC[C@H](C)Nc1ncc2c(-c3cnn([C@@H]4CCN(C)C4=O)c3)cc([C@H]3CC[C@H](O)CC3)n2n1` [Compound 471] was tested, and the pIC50 ([1]; TR-FRET activity assay, ATP at Km, 60 minutes, read-out: Mer IC50) was ≥ 7.00, the “FLT3/Mer ratio (FLT3 IC50/Mer IC50)” value ([1]; ratio calculated as FLT3 IC50/Mer IC50) was “+++ (“+++” represents a ratio of >100)” and the pIC50 [2] was ≥ 7.00.
